In ChEMBL document CHEMBL1275282, “Synthesis, characterization, oxidative degradation, antibacterial activity and acetylcholinesterase/butyrylcholinesterase inhibitory effects of some new phosphorus(V) hydrazides” (Eur J Med Chem, 2010):

Target: Cholinesterases; ACHE & BCHE (Homo sapiens) (UniProt P06276+P22303)
Assay: Selectivity ratio of IC50 for human BChE over IC50 for human AChE by Ellman method

Cholinesterases; ACHE & BCHE (Homo sapiens), sequence (P06276 whole entry, looked up): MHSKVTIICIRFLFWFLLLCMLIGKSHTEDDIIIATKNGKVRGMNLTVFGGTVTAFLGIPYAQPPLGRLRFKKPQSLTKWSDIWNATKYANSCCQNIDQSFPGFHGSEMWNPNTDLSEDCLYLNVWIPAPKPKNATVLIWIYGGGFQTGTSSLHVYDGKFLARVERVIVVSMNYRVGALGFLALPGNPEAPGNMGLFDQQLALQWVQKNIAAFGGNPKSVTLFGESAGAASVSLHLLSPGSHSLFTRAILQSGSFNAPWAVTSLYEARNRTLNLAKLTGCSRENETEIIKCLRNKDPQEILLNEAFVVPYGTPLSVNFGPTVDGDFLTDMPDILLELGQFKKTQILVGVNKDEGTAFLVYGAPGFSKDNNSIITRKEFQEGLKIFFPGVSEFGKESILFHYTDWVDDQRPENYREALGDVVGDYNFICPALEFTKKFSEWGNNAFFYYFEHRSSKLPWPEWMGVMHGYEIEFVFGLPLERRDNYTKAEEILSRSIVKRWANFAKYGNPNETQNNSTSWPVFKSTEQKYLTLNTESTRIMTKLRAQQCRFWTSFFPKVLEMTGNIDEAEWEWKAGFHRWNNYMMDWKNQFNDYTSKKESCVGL
Cholinesterases; ACHE & BCHE (Homo sapiens), sequence (P22303 whole entry, looked up): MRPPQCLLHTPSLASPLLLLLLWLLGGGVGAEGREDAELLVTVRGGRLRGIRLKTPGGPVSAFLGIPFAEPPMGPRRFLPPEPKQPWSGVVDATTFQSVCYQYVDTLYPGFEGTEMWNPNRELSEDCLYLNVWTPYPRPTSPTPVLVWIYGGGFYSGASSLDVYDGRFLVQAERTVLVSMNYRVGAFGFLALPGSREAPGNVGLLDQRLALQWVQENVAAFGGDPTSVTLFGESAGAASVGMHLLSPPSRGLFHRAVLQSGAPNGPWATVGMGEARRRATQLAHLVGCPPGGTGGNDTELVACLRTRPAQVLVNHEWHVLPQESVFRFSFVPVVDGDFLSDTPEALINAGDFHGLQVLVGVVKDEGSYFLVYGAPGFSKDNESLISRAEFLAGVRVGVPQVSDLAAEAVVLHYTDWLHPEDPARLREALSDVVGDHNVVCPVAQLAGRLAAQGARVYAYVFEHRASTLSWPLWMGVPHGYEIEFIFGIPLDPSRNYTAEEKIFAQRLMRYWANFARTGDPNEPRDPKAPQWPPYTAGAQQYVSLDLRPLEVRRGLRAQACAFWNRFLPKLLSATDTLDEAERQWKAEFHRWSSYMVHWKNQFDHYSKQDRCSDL

## O=P(O)(NN1CCCCC1)Oc1ccccc1
  Ratio IC50: 4
